Measured values taken from patent US8609847B2, “Dihydroquinolinone derivatives” (Taisho Pharmaceutical Co., Ltd, priority 2009, dated 2013).

Molecular target: T1, human H3 receptor (Homo sapiens, UniProt Q9Y5N1)
T1 construct: purchased Perkin Elmer ES-392-M400UA; host or cells: CHO-K1 cells (recombinant expression), membrane preparation
Test: H3 Receptor Binding Test
Settings: 50% inhibition of R(−)-α-methyl[3H]histamine (1 nM) binding; membrane preparation of human H3 receptor-expressing CHO-K1 cells
Method: A membrane preparation of human H3 receptor-expressing CHO-K1 cells (Perkin Elmer, ES-392-M400UA, 15 μg protein/200 μl), R(−)-α-methyl[^3H]histamine (Amersham, TRK-1017, specific activity: 1.74 TBq/mmol, 1 nM) and a test drug were reacted at room temperature for 1 hour. After completion of the reaction, the reaction mixture was subjected to suction filtration through a 0.3% polyethyleneimine-treated glass filter (GF/C). The glass filter was washed five times with 50 mM Tris-HCl washing solution (pH 7.4) containing 5 mM EDTA. After washing, the glass filter was dried and a scintillator was added thereto, followed by measurement of radioactivity on the filter using a liquid scintillation counter.
Binding of R(−)-α-methyl[^3H]histamine in the presence of 10 μM R(−)-α-methylhistamine was defined as non-specific binding, and the difference between total binding and non-specific binding of R(−)-α-methyl[^3H]histamine was defined as specific binding of R(−)-α-methyl[^3H]histamine. A fixed concentration (1 nM) of R(−)-α-methyl[^3H]histamine was reacted under the above conditions with each test drug at various concentrations to obtain an inhibition curve. The inhibition curve was used to determine the concentration (IC50) of each test drug required for 50% inhibition of R(−)-α-methyl[^3H]histamine binding.

T1 sequence (Q9Y5N1 whole entry): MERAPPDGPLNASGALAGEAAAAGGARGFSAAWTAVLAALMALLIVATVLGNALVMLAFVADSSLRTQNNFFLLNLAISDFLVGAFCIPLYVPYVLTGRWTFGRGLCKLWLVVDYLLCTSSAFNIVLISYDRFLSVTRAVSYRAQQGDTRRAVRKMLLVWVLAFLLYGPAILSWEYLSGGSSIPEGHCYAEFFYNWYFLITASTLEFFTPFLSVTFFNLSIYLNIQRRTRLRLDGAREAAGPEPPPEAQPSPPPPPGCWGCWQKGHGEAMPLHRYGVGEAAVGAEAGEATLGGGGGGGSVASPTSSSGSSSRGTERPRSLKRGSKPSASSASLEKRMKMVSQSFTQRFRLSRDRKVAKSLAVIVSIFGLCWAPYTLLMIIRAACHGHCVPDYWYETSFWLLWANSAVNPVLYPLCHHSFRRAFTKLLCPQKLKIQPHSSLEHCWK

Compound | IC50
C[C@@H]1CCCN1CCCOc1ccc2c(c1)CCC(=O)N2c1ccc(CO)cc1 [Compound No. 10, 1-[4-(hydroxymethyl)phenyl]-6-{3-[(2R)-2-methylpyrrolidin-1-yl]propoxy}-3,4-dihydroquinolin-2(1H)-one] | 1.6 nM
Cc1ccc(Oc2ccc(N3C(=O)CCc4cc(OCCCN5CCC[C@H]5C)ccc43)cc2)nn1 [Compound No. 20, 1-{4-[(6-methylpyridazin-3-yl)oxy]phenyl}-6-{3-[(2R)-2-methylpyrrolidin-1-yl]propoxy}-3,4-dihydroquinolin-2(1H)-one] | 1 nM
C[C@@H]1CCCN1CCCOc1ccc2c(c1)CCC(=O)N2c1ccc2ncccc2c1 [Compound No. 38, 6-{3-[(2R)-2-methylpyrrolidin-1-yl]propoxy}-3,4-dihydro-2H-1,6′-biquinolin-2-one] | 2.9 nM
C[C@@H]1CCCN1CCCOc1ccc2c(c1)CCC(=O)N2c1cnc2cccnc2c1 [Compound No. 39, 6-{3-[(2R)-2-methylpyrrolidin-1-yl]propoxy}-1-(1,5-naphthylizin-3-yl)-3,4-dihydroquinolin-2(1H)-one] | 4.4 nM
Cc1ccc(N2C(=O)CCc3cc(OCCCN4CCC[C@H]4C)ccc32)cc1C#N [Compound No. 32, 2-methyl-5-[6-{3-[(2R)-2-methylpyrrolidin-1-yl]propoxy}-2-oxo-3,4-dihydroquinolin-1(2H)-yl]benzonitrile] | 2.7 nM
COc1ccc(N2C(=O)CCc3cc(OCCCN4CCC[C@H]4C)ccc32)cc1C#N [Compound No. 33, 2-methoxy-5-[6-{3-[(2R)-2-methylpyrrolidin-1-yl]propoxy}-2-oxo-3,4-dihydroquinolin-1(2H)-yl]benzonitrile] | 4 nM
C[C@@H]1CCCN1CCCOc1ccc2c(c1)CCC(=O)N2c1ccc(C#N)cc1 [Compound No. 1, 4-[6-{3-[(2R)-2-methylpyrrolidin-1-yl]propoxy}-2-oxo-3,4-dihydroquinolin-1(2H)-yl]benzonitrile] | 4.4 nM
C[C@@H]1CCCN1CCCOc1ccc2c(c1)CCC(=O)N2c1cnc2ccccc2c1 [Compound No. 37, 6-{3-[(2R)-2-methylpyrrolidin-1-yl]propoxy}-3,4-dihydro-2H-1,3′-biquinolin-2-one] | 3.1 nM
C[C@@H]1CCCN1CCCOc1ccc2c(c1)CCC(=O)N2c1ccc(C(=O)N2CCCC2)cc1 [Compound No. 14, 6-{3-[(2R)-2-methylpyrrolidin-1-yl]propoxy}-1-[4-(pyrrolidin-1-ylcarbonyl)phenyl]-3,4-dihydroquinolin-2(1H)-one] | 5.7 nM
C[C@@H]1CCCN1CCCOc1ccc2c(c1)CCC(=O)N2c1ccc(Cl)cc1 [Compound No. 7, 1-(4-chlorophenyl)-6-{3-[(2R)-2-methylpyrrolidin-1-yl]propoxy}-3,4-dihydroquinolin-2(1H)-one] | 1.6 nM
CCOc1ccc(N2C(=O)CCc3cc(OCCCN4CCC[C@H]4C)ccc32)cc1 [Compound No. 5, 1-(4-ethoxyphenyl)-6-{3-[(2R)-2-methylpyrrolidin-1-yl]propoxy}-3,4-dihydroquinolin-2(1H)-one] | 3.9 nM
CC(=O)c1ccc(N2C(=O)CCc3cc(OCCCN4CCC[C@H]4C)ccc32)cc1 [Compound No. 15, 1-(4-acetylphenyl)-6-{3-[(2R)-2-methylpyrrolidin-1-yl]propoxy}-3,4-dihydroquinolin-2(1H)-one] | 3.6 nM
C[C@@H]1CCCN1CCCOc1ccc2c(c1)CCC(=O)N2c1ccc(Cl)cc1F [Compound No. 30, 1-(4-chloro-2-fluorophenyl)-6-{3-[(2R)-2-methylpyrrolidin-1-yl]propoxy}-3,4-dihydroquinolin-2(1H)-one] | 1.1 nM
C[C@@H]1CCCN1CCCOc1ccc2c(c1)CCC(=O)N2c1ccc(N2CCCC2=O)cc1 [Compound No. 18, 6-{3-[(2R)-2-methylpyrrolidin-1-yl]propoxy}-1-[4-(2-oxopyrrolidin-1-yl)phenyl]-3,4-dihydroquinolin-2(1H)-one] | 20 nM
C[C@@H]1CCCN1CCCOc1ccc2c(c1)CCC(=O)N2c1cccc(C(=O)N(C)C)c1 [Compound No. 21, N,N-dimethyl-3-[6-{3-[(2R)-2-methylpyrrolidin-1-yl]propoxy}-2-oxo-3,4-dihydroquinolin-1(2H)-yl]benzamide] | 26 nM
C[C@@H]1CCCN1CCCOc1ccc2c(c1)CCC(=O)N2c1ccc(C(=O)C2CC2)cc1 [Compound No. 16, 1-[4-(cyclopropylcarbonyl)phenyl]-6-{3-[(2R)-2-methylpyrrolidin-1-yl]propoxy}-3,4-dihydroquinolin-2(1H)-one] | 11 nM
Cc1ccc(N2C(=O)CCc3cc(OCCCN4CCC[C@H]4C)ccc32)cc1 [Compound No. 3, 1-(4-methylphenyl)-6-{3-[(2R)-2-methylpyrrolidin-1-yl]propoxy}-3,4-dihydroquinolin-2(1H)-one] | 1 nM

Other lines, results leading:

IC50 | Compound
5.3 nM | CC(C)(C)N1CCC(Oc2ccc3c(c2)CCC(=O)N3c2cncc(F)c2)CC1 [Compound No. 64, 6-[(1-tert-butylpiperidin-4-yl)oxy]-1-(5-fluoropyridin-3-yl)-3,4-dihydroquinolin-2(1H)-one]
3.7 nM | CC(C)(C)N1CCC(Oc2ccc3c(c2)CCC(=O)N3c2ccc(F)cc2)CC1 [Compound No. 66, 6-[(1-tert-butylpiperidin-4-yl)oxy]-1-(4-fluorophenyl)-3,4-dihydroquinolin-2(1H)-one]
22 nM | C[C@@H]1CCCN1CCCOc1ccc2c(c1)CCC(=O)N2c1ccc(C#N)cn1 [Compound No. 46, 6-[6-{3-[(2R)-2-methylpyrrolidin-1-yl]propoxy}-2-oxo-3,4-dihydroquinolin-1(2H)-yl]pyridine-3-carbonitrile]
2.1 nM | O=C1CCc2cc(OC3CCN(C4CC4)CC3)ccc2N1c1ccc(F)cc1 [Compound No. 77, 6-[(1-cyclopropylpiperidin-4-yl)oxy]-1-(4-fluorophenyl)-3,4-dihydroquinolin-2(1H)-one]
4 nM | C[C@@H]1CCCN1CCCOc1ccc2c(c1)CCC(=O)N2c1ccc(Cl)cn1 [Compound No. 49, 1-(5-chloropyridin-2-yl)-6-{3-[(2R)-2-methylpyrrolidin-1-yl]propoxy}-3,4-dihydroquinolin-2(1H)-one]
9.8 nM | O=C1CCc2cc(OC3CCN(CC4CC4)CC3)ccc2N1c1ccc(F)cc1 [Compound No. 76, 6-{[1-(cyclopropylmethyl)piperidin-4-yl]oxy}-1-(4-fluorophenyl)-3,4-dihydroquinolin-2(1H)-one]
1.2 nM | C[C@@H]1CCCN1CCCOc1ccc2c(c1)CCC(=O)N2c1ccc2c(c1)OCO2 [Compound No. 44, 1-(1,3-benzodioxol-5-yl)-6-{3-[(2R)-2-methylpyrrolidin-1-yl]propoxy}-3,4-dihydroquinolin-2(1H)-one]
18 nM | O=C1CCc2cc(OCCCN3CCCC3)ccc2N1c1ccc(F)c(F)c1 [Compound No. 81, 1-(3,4-difluorophenyl)-6-[3-(pyrrolidin-1-yl)propoxy]-3,4-dihydroquinolin-2(1H)-one]
1.4 nM | CC(C)N1CCC(Oc2ccc3c(c2)CCC(=O)N3c2ccc(F)cc2)CC1 [Compound No. 75, 1-(4-fluorophenyl)-6-{[1-(propan-2-yl)piperidin-4-yl]oxy}-3,4-dihydroquinolin-2(1H)-one]
5 nM | C[C@@H]1CC[C@@H](C)N1CCCOc1ccc2c(c1)CCC(=O)N2c1ccc(F)cc1 [Compound No. 84, 6-{3-[(2R,5R)-2,5-dimethylpyrrolidin-1-yl]propoxy}-1-(4-fluorophenyl)-3,4-dihydroquinolin-2(1H)-one]
1.2 nM | C[C@@H]1CCCN1CCCOc1ccc2c(c1)CCC(=O)N2c1cncc(F)c1 [Compound No. 52, 1-(5-fluoropyridin-3-yl)-6-{3-[(2R)-2-methylpyrrolidin-1-yl]propoxy}-3,4-dihydroquinolin-2(1H)-one]
13 nM | C[C@@H]1CCCN1CCCOc1ccc2c(c1)CCC(=O)N2c1ncccc1C#N [Compound No. 51, 2-[6-{3-[(2R)-2-methylpyrrolidin-1-yl]propoxy}-2-oxo-3,4-dihydroquinolin-1(2H)-yl]pyridine-3-carbonitrile]
0.76 nM | C[C@@H]1CCCN1CCCOc1ccc2c(c1)CCC(=O)N2c1c[nH]c2ccccc12 [Compound No. 57, 1-(1H-indol-3-yl)-6-{3-[(2R)-2-methylpyrrolidin-1-yl]propoxy}-3,4-dihydroquinolin-2(1H)-one]
2.2 nM | C[C@@H]1CCCN1CCCOc1ccc2c(c1)CCC(=O)N2c1ccc2c(c1)OCCO2 [Compound No. 43, 1-(2,3-dihydro-1,4-benzodioxin-6-yl)-6-{3-[(2R)-2-methylpyrrolidin-1-yl]propoxy}-3,4-dihydroquinolin-2(1H)-one]
0.75 nM | O=C1CCc2cc(OC3CCN(C4CCC4)CC3)ccc2N1c1ccc(Cl)cc1 [Compound No. 70, 1-(4-chlorophenyl)-6-[(1-cyclobutylpiperidin-4-yl)oxy]-3,4-dihydroquinolin-2(1H)-one]
2.3 nM | C[C@@H]1CCCN1CCCOc1ccc2c(c1)CCC(=O)N2c1ccc2c(c1)OCC2 [Compound No. 45, 1-(2,3-dihydro-1-benzofuran-6-yl)-6-{3-[(2R)-2-methylpyrrolidin-1-yl]propoxy}-3,4-dihydroquinolin-2(1H)-one]
